# In patent publication US20050289668A1, “Plants with increased levels of one or more amino acids” (priority 2003, published 2005):
# Columns and labels:
# [1] = target: T1, E. coli threonine deaminase (ilvA) variant L481I, SEQ ID NO: 10 (Escherichia coli, UniProt P04968, A120R/A140R/G195C/G334V/L481I/V121L); experiment: Threonine deaminase steady state kinetics, L481I; format: biochemical
# T1 construct: made in house; host or cells: E. coli (pSE380, crude extract)
# T1 sequence (P04968 1-514 A120R/V121L/A140R/G195C/G334V/L481I): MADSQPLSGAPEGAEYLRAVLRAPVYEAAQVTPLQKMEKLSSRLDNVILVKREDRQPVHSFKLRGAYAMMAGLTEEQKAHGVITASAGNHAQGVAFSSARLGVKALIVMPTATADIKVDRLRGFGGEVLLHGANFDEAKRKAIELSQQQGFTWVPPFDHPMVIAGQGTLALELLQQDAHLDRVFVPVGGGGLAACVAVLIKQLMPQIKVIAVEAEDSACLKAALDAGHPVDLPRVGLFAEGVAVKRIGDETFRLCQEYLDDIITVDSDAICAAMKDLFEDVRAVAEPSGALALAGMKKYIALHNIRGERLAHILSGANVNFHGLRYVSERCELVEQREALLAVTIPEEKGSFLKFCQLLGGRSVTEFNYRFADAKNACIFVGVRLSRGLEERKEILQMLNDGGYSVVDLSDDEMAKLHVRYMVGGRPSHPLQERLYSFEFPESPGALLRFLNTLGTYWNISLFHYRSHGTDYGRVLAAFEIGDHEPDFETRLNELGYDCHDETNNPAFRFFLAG
# Experimental: (§1) Before conducting further transformation experiments using the isolated ilvA alleles in transgenic plants, each allele was over-expressed in E. coli to determine its kinetic parameters. Kinetics data on threonine deaminases containing various mutations, and a comparison to data available for threonine deaminases from Arabidopsis, are provided in Table 4. The E. coli ilvA481 variants were subcloned into pSE380 (Invitrogen, Carlsbad, Calif.) and expression was induced with 0.2 mM IPTG at 37° C. for 3 hours. Expression of the E. coli alleles was high and fairly consistent as visualized by SDS-PAGE.
# The effects of amino acid substitutions at Leu481 in ilvA were assessed by steady state kinetic analysis in the presence and absence of L-isoleucine. Threonine deaminase polypeptides for use in in vitro kinetics studies were extracted from E. coli cells in assay buffer containing 50 mM potassium phosphate (pH7.5), 1 mM dithiothreitol (DTT), and 0.5 mM ethylenediamine-tetraacetate. A continuous assay method was employed to monitor the formation of α-ketobutyrate directly at 230 nm (ε230 (pH7.5)=540 M^−1cm^−1 whereas threonine absorption was negligible (˜1%)). The assay was initiated by adding 20 μl of crude extract diluted 1:20 v/v to the assay vessel containing L-threonine (between 2.5 mM and 50 mM) in a final volume of 1 mL. For L-isoleucine inhibition, L-isoleucine was added between 0 mM and 20 mM. The kinetic parameters were determined by fitting the data points to the equations using GraFit 4.0 software (Erithacus Software, Surrey, UK). For comparison, the kcat values of L481 alleles were normalized to the kcat value for the wild type IlvA enzyme. Enzymes represented in FIG. 7 are: wild type E. coli threonine deaminase (circles), L481Y TD enzyme (diamonds), L481F TD enzyme (triangles), and the L481T TD enzyme (squares). Table 4 also summarizes the kinetic parameters of the variant threonine deaminase enzymes produced by the various E. coli ilvA alleles.
# [2] = target: T2, E. coli threonine deaminase (ilvA), wild type, SEQ ID NO: 2 (Escherichia coli, UniProt P04968, A120R/A140R/G195C/G334V/V121L); experiment: Threonine deaminase steady state kinetics, E. coli wild type; format: biochemical
# T2 construct: made in house; host or cells: E. coli (crude extract)
# Experimental: as §1
# (§2) The effects of amino acid substitutions at Leu481 in ilvA were assessed by steady state kinetic analysis in the presence and absence of L-isoleucine. Threonine deaminase polypeptides for use in in vitro kinetics studies were extracted from E. coli cells in assay buffer containing 50 mM potassium phosphate (pH7.5), 1 mM dithiothreitol (DTT), and 0.5 mM ethylenediamine-tetraacetate. A continuous assay method was employed to monitor the formation of α-ketobutyrate directly at 230 nm (ε230 (pH7.5)=540 M^−1cm^−1 whereas threonine absorption was negligible (˜1%)). […] The kinetic parameters were determined by fitting the data points to the equations using GraFit 4.0 software (Erithacus Software, Surrey, UK). […]
# [3] = target: Arabidopsis threonine deaminase, wild type; conditions: wild type Arabidopsis TD, comparison data, cited from earlier work
# [4] = target: T3, E. coli threonine deaminase (ilvA) variant L481P, SEQ ID NO: 6 (Escherichia coli, UniProt P04968, A120R/A140R/G195C/G334V/L481P/V121L); experiment: Threonine deaminase steady state kinetics, L481P; format: biochemical
# T3 construct: made in house; host or cells: E. coli (pSE380, crude extract)
# Experimental: as §1, §2
# [5] = target: Arabidopsis threonine deaminase, mutant OMR1 (polynucleotide SEQ ID NO: 22); conditions: mutant Arabidopsis (OMR1) TD, comparison data, cited from earlier work
# T3 sequence (P04968 whole entry A120R/V121L/A140R/G195C/G334V/L481P): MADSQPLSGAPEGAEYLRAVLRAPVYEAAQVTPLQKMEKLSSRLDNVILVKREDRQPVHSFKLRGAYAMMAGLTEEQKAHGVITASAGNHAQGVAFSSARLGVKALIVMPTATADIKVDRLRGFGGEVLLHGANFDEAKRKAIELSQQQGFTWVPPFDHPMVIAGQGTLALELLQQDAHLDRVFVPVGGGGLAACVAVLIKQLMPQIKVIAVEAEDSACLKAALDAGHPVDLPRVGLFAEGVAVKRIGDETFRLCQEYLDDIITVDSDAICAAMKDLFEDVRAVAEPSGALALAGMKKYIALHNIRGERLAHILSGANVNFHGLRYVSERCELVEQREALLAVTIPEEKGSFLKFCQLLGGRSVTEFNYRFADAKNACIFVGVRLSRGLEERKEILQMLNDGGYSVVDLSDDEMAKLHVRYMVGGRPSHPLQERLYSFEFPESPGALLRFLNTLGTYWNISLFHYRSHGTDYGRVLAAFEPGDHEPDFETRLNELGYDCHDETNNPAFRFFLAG
# T2 sequence (P04968 whole entry A120R/V121L/A140R/G195C/G334V): as the sequence (P04968 whole entry A120R/V121L/A140R/G195C/G334V/L481P) above, with P481L counted along it
Compound,IC50 [1],IC50 [2],IC50 [3],IC50 [4],IC50 [5],"Hill coefficient (n), substrate binding ([1]; L481I, pMON25861, positive cooperativity)","Km ([1]; read-out: Km^Thr, L481I, pMON25861, pH 7.5, L-threonine 2.5-50 mM)","Km ([2]; read-out: Km^Thr, E. coli wt, pMON25858, pH 7.5, L-threonine 2.5-50 mM)",Km ([3]; read-out: Km^Thr),"Km ([4]; read-out: Km^Thr, L481P, pMON25864, pH 7.5, L-threonine 2.5-50 mM)",Km ([5]; read-out: Km^Thr)
CC[C@H](C)[C@H](N)C(=O)O [L-isoleucine],134 µM,56 µM,10 µM,650 µM,500 µM,,,,,,
C[C@@H](O)[C@H](N)C(=O)O [L-threonine],,,,,,1.6,7.6 mM,8.3 mM,2.8 mM,8.8 mM,3.6 mM
